Reference: US7811797B2, “α-isomaltosylglucosaccharide-forming enzyme, process and uses of the same” (Kabushiki Kaisha Hayashibara Seibutsu Kagaku Kenkyujo, priority 2000, dated 2010)
Read-outs that look alike come from different tables or passages of the source.

Tests used:
[1] = tested on: α-isomaltosylglucosaccharide-forming enzyme; test: Influence of metal ions on the activity of α-isomaltosylglucosaccharide-forming enzyme (Strain C9); type: biochemical, Bacillus globisporus C9; details: 1 mM of each metal-ion
Experimental: (§1) One unit activity of the α-isomaltosylglucosaccharide-forming enzyme is defined as the enzyme amount that forms one micromole of maltose per minute under the above enzymatic reaction conditions. Throughout the specification, the enzymatic activity of the α-isomaltosylglucosaccharide-forming enzyme means the unit(s) assayed as above.
(§2) The influence of metal ions on the activity of α-isomaltosylglucosaccharide-forming enzyme was examined in the presence of 1 mM of each metal-ion according to the assay for the enzyme activity.

[2] = tested on: α-isomaltosyl-transferring enzyme; test: Influence of metal ions on the activity of α-isomaltosyl-transferring enzyme (Strain C9); type: biochemical, Bacillus globisporus C9; details: for Relative activity (%): 1 mM of each metal-ion
Experimental: The α-isomaltosyl-transferring enzyme was assayed for enzymatic activity by dissolving panose in 100 mM acetate buffer (pH 6.0) to give a concentration of 2% (w/v) for a substrate solution, adding a 0.5 ml of an enzyme solution to 0.5 ml of the substrate solution, enzymatically reacting the mixture solution at 35° C. for 30 min, suspending the reaction mixture by boiling for 10 min, and quantifying glucose, among the cyclotetrasaccharide and glucose formed in the reaction mixture, by the glucose oxidase method. One unit activity of the α-isomaltosyl-transferring enzyme is defined as the enzyme amount that forms one micromole of glucose per minute under the above enzymatic reaction conditions. Throughout the specification, the enzymatic activity of the α-isomaltosyl-transferring enzyme means the unit(s) assayed as above. […]

[3] = tested on: α-isomaltosylglucosaccharide-forming enzyme; test: Influence of metal ions on the activity of α-isomaltosylglucosaccharide-forming enzyme (Strain C11); type: biochemical, Bacillus globisporus C11; details: for influence on the enzyme activity, in words: 1 mM; for Relative activity (%): 1 mM of each metal-ion
Experimental: as §1
The influence of metal ions on the activity of α-isomaltosylglucosaccharide forming enzyme was examined in the presence of 1 mM of each metal-ion according to the assay for the enzyme activity.

[4] = tested on: α-isomaltosyl-transferring enzyme; type: biochemical, Bacillus globisporus C11; details: 1 mM of each metal-ion
Experimental: (§3) The α-isomaltosyl-transferring enzyme was assayed for enzymatic activity by dissolving panose in 100 mM acetate buffer (pH 6.0) to give a concentration of 2% (w/v) for a substrate solution, adding a 0.5 ml of an enzyme solution to 0.5 ml of the substrate solution, enzymatically reacting the mixture solution at 35° C. for 30 min, suspending the reaction mixture by boiling for 10 min, and quantifying glucose, among the cyclotetrasaccharide and glucose formed in the reaction mixture, by the glucose oxidase method. One unit activity of the α-isomaltosyl-transferring enzyme is defined as the enzyme amount that forms one micromole of glucose per minute under the above enzymatic reaction conditions. Throughout the specification, the enzymatic activity of the α-isomaltosyl-transferring enzyme means the unit(s) assayed as above.
(§4) The influence of metal ions on the activity of α-isomaltosyl-transferring enzyme was examined in the presence of 1 mM of each metal-ion according to the assay for the enzyme activity.

[5] = tested on: α-isomaltosylglucosaccharide-forming enzyme; test: Influence of metal ions on the activity of α-isomaltosylglucosaccharide-forming enzyme (Strain N75); type: biochemical, Bacillus globisporus N75; details: for influence on the enzyme activity, in words: 1 mM; for Relative activity (%): 1 mM of each metal-ion
Experimental: as §1, §2

[6] = tested on: α-isomaltosyl-transferring enzyme; test: Influence of metal ions on the activity of α-isomaltosyl-transferring enzyme (Strain N75); type: biochemical, Bacillus globisporus N75; details: for Relative activity (%): 1 mM of each metal-ion
Experimental: as §3, §4

[7] = tested on: α-isomaltosylglucosaccharide-forming enzyme; test: Influence of metal ions on the activity of α-isomaltosylglucosaccharide-forming enzyme (Strain A19); type: biochemical, Arthrobacter globiformis A19; details: for Relative activity (%): 1 mM of each metal-ion
[8] = tested on: α-isomaltosyl-transferring enzyme; test: Influence of metal ions on the activity of α-isomaltosyl-transferring enzyme (Strain S1); type: biochemical, Arthrobacter ramosus S1; details: for Relative activity (%): 1 mM of each metal-ion
Experimental: as §3, §4

[9] = tested on: α-isomaltosylglucosaccharide-forming enzyme; test: Action on saccharides (substrates), Enzyme of Strain C9; type: biochemical, Bacillus globisporus C9; set-up: key: −: it showed no change; +: it showed a slight reduction of the color spot of the substrate and the formation of other reaction product; ++: it showed a high reduction of the color spot of the substrate and the formation of other reaction product; +++: it showed a substantial disappearance of the substrate spot and the formation of other reaction product; details: two units/g substrate, substrate 2% (w/v), 30° C., pH 6.0, 24 hours, TLC
Experimental: (§5) It was tested whether saccharides can be used as substrates for the α-isomaltosylglucosaccharide-forming enzyme. For the purpose, a solution of maltose, maltotriose, maltotetraose, maltopentaose, maltohexaose, maltoheptaose, isomaltose, isomaltotriose, panose, isopanose, trehalose, kojibiose, nigerose, neotrehalose, cellobiose, gentibiose, maltitol, maltotriitol, lactose, sucrose, erlose, selaginose, maltosyl glucoside, or isomaltosyl glucoside was prepared.
(§6) To each of the above solutions was added two units/g substrate of a purified specimen of α-isomaltosylglucosaccharide-forming enzyme from either Bacillus globisporus C9 obtained by the method in Experiment 4-2, Bacillus globisporus C11 obtained by the method in Experiment 7-2, Bacillus globisporus N75 obtained by the method in Experiment 11-2, or Arthrobacter globiformis A19 obtained by the method in Experiment 15-2, and the resulting each solution was adjusted to give a substrate concentration of 2% (w/v) and incubated at 30° C. and pH 6.0, except for using pH 8.4 for the enzyme from Arthrobacter globiformis A19, for 24 hours. The enzyme solutions before and after the enzymatic reactions were respectively analyzed on TLC disclosed in Experiment 1 to confirm whether the enzymes acted on these substrates.

[10] = tested on: α-isomaltosylglucosaccharide-forming enzyme; test: Action on saccharides (substrates), Enzyme of Strain C11; type: biochemical, Bacillus globisporus C11; set-up: key: −: it showed no change; +: it showed a slight reduction of the color spot of the substrate and the formation of other reaction product; ++: it showed a high reduction of the color spot of the substrate and the formation of other reaction product; +++: it showed a substantial disappearance of the substrate spot and the formation of other reaction product; details: two units/g substrate, substrate 2% (w/v), 30° C., pH 6.0, 24 hours, TLC
Experimental: as §5, §6

[11] = tested on: α-isomaltosylglucosaccharide-forming enzyme; test: Action on saccharides (substrates), Enzyme of Strain N75; type: biochemical, Bacillus globisporus N75; set-up: key: −: it showed no change; +: it showed a slight reduction of the color spot of the substrate and the formation of other reaction product; ++: it showed a high reduction of the color spot of the substrate and the formation of other reaction product; +++: it showed a substantial disappearance of the substrate spot and the formation of other reaction product; details: two units/g substrate, substrate 2% (w/v), 30° C., pH 6.0, 24 hours, TLC
Experimental: as §5, §6

[12] = tested on: α-isomaltosylglucosaccharide-forming enzyme; test: Action on saccharides (substrates), Enzyme of Strain A19; type: biochemical, Arthrobacter globiformis A19; set-up: key: −: it showed no change; +: it showed a slight reduction of the color spot of the substrate and the formation of other reaction product; ++: it showed a high reduction of the color spot of the substrate and the formation of other reaction product; +++: it showed a substantial disappearance of the substrate spot and the formation of other reaction product; details: two units/g substrate, substrate 2% (w/v), 30° C., pH 8.4, 24 hours, TLC
Experimental: as §5, §6

[13] = tested on: α-isomaltosylglucosaccharide-forming enzyme; test: Transfer-acceptor specificity, Enzyme of Strain C9; type: biochemical, Bacillus globisporus C9; details: acceptor 1.6%, PINE-DEX #100 donor 4%, one unit/g donor, 30° C., pH 6.0, 24 hours
How it was run: (§7)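 Each candidate acceptor at 1.6% was combined with 4% partial starch hydrolysate donor and 1 unit/g donor (d.s.b.) of purified enzyme. Incubation ran 24 h at 30 °C, pH 6.0 for the C9, C11 and N75 enzymes and pH 8.4 for A19. Transfer products were detected by GLC for mono- and disaccharide acceptors and HPLC for trisaccharide acceptors.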

[14] = tested on: α-isomaltosylglucosaccharide-forming enzyme; test: Transfer-acceptor specificity, Enzyme of Strain C11; type: biochemical, Bacillus globisporus C11; details: acceptor 1.6%, PINE-DEX #100 donor 4%, one unit/g donor, 30° C., pH 6.0, 24 hours
[15] = tested on: α-isomaltosylglucosaccharide-forming enzyme; test: Transfer-acceptor specificity, Enzyme of Strain N75; type: biochemical, Bacillus globisporus N75; details: acceptor 1.6%, PINE-DEX #100 donor 4%, one unit/g donor, 30° C., pH 6.0, 24 hours
How it was run: as §7

[16] = tested on: α-isomaltosylglucosaccharide-forming enzyme; test: Transfer-acceptor specificity, Enzyme of Strain A19; type: biochemical, Arthrobacter globiformis A19; details: acceptor 1.6%, PINE-DEX #100 donor 4%, one unit/g donor, 30° C., pH 8.4, 24 hours
How it was run: as §7

Compound | Relative activity (%) [1] [%] | Relative activity (%) [2] [%] | Relative activity (%) [3] [%] | Relative activity (%) [4] [%] | Relative activity (%) [5] [%] | Relative activity (%) [6] [%] | Relative activity (%) [7] [%] | Relative activity (%) [8] [%] | other results
[Cu+2] [Cu^2+] | 15 | 57 | 23 | 56 | 7 | 15 | 0 | 2 | influence on the enzyme activity, in words ([2]; 1 mM): also inhibited; influence on the enzyme activity, in words [3]: greatly inhibited; influence on the enzyme activity, in words [5]: greatly inhibited; influence on the enzyme activity, in words ([6]; 1 mM): also inhibited; influence on the enzyme activity, in words ([7]; 1 mM): greatly inhibited; influence on the enzyme activity, in words ([8]; 1 mM): also inhibited
[Pb+2] [Pb^2+] | 103 | 89 | 101 | 74 | 86 | 69 | 43 | 85 | 
[Co+2] [Co^2+] | 100 | 103 | 96 | 89 | 93 | 92 | 93 | 91 | 
[Al+3] [Al^3+] |  | 103 |  | 89 |  | 94 | 37 | 93 | 
[Mn+2] [Mn^2+] | 111 | 106 | 142 |  | 120 |  |  |  | influence on the enzyme activity, in words [3]: activated; influence on the enzyme activity, in words [5]: activated
[Fe+2] [Fe^2+] |  |  |  |  | 82 |  | 36 |  | Relative activity (%) ([4]; listed as Fe^3+): 88%; Relative activity (%) ([6]; listed as Fe^3+): 90%; Relative activity (%) ([7]; listed as Fe^3+): 35%; Relative activity (%) ([8]; listed as Fe^3+): 75%
OC[C@H]1O[C@H](OC[C@H]2O[C@H](OC[C@H]3OC(O)[C@H](O)[C@@H](O)[C@@H]3O)[C@H](O)[C@@H](O)[C@@H]2O)[C@H](O)[C@@H](O)[C@@H]1O (some centres unmarked) [Isomaltotriose] |  |  |  |  |  |  |  |  | Enzymatic action, Enzyme of Strain C9 [9]: −; Enzymatic action, Enzyme of Strain C11 [10]: −; Enzymatic action, Enzyme of Strain N75 [11]: −; Enzymatic action, Enzyme of Strain A19 [12]: −; Product of transferring reaction, Enzyme of Strain C9 [13]: ++ (a saccharide-transferred product was detected in an amount over ten percent through transfer reaction to acceptor); Product of transferring reaction, Enzyme of Strain C11 [14]: ++ (a saccharide-transferred product was detected in an amount over ten percent through transfer reaction to acceptor); Product of transferring reaction, Enzyme of Strain N75 [15]: ++ (a saccharide-transferred product was detected in an amount over ten percent through transfer reaction to acceptor); Product of transferring reaction, Enzyme of Stain A19 [16]: ∀ (a saccharide-transferred product was detected in an amount less than one percent through transfer reaction to acceptor)
OC[C@H]1O[C@H](O[C@H]2O[C@H](CO)[C@@H](O)[C@H](O)[C@H]2O)[C@H](O)[C@@H](O)[C@@H]1O [Trehalose] |  |  |  |  |  |  |  |  | Enzymatic action, Enzyme of Strain C9 [9]: −; Enzymatic action, Enzyme of Strain C11 [10]: −; Enzymatic action, Enzyme of Strain N75 [11]: −; Enzymatic action, Enzyme of Strain A19 [12]: −; Product of transferring reaction, Enzyme of Strain C9 [13]: ++ (a saccharide-transferred product was detected in an amount over ten percent through transfer reaction to acceptor); Product of transferring reaction, Enzyme of Strain C11 [14]: ++ (a saccharide-transferred product was detected in an amount over ten percent through transfer reaction to acceptor); Product of transferring reaction, Enzyme of Strain N75 [15]: ++ (a saccharide-transferred product was detected in an amount over ten percent through transfer reaction to acceptor); Product of transferring reaction, Enzyme of Stain A19 [16]: ++ (a saccharide-transferred product was detected in an amount over ten percent through transfer reaction to acceptor)
[Ni+2] [Ni^2+] |  | 102 |  | 89 |  | 91 | 46 | 87 | 
